Consider three compounds from patent US9314536B2, “Compounds and methods for the treatment of EGFR positive diseases” (Bio-Thera Solutions, Ltd., Co., priority 2012, dated 2016).

In one data set the test system is tubulin. The data set is described as follows: HTS-Tubulin Polymerization Assay Kit, tubulin polymerization in vitro. It is filed as biochemical. Particulars: 1 μM stock, 10 μL added to 100 μL 4 mg/ml tubulin, 37° C., 405 nm; compared with the PBS buffer. As for the experimental part: The effect of 3AA-MDC, 206-3AA-MDC (206 is an anit-EGFR antibody containing a light chain with sequence shown in Seq ID 1 and a heavy chain with amino acid sequence shown in Seq ID 2, and it was prepared as described in example 7) and the metabolites (Cys-3AA-MDC and Lys-mcc-MDC) of prodrug antibody maytansinoid conjugates on the tubulin polymerization in vitro was assessed by HTS-Tubulin Polymerization Assay Kit (BK004P, Cytoskeleton, Inc., USA). According to the instruction of kit, pre-warm the 96-well plate to 37° C. for 30 min prior to starting the assay. At the same time, the spectrophotometer (SpectraMax, Molecular Devices, USA) was set as follow: wavelength, 405 nm; temperature, 37° C.; Kinetic, 31 cycles of 1 reading per minute. Make cold G-PEM buffer (990 μL General Tubulin Buffer+10 μL GTP Stock) and keep it on ice. Prepare 4 mg/mL tubulin, 1 μM L-3AA-MDC (N2′-deacetyl-N2′-(6-maleimido-1-oxo-hexyl)maytansine), 1 μM 206-3AA-MDC, 1 μM cys-3AA-MDC, 1 μM lys-mcc-MDC, 100 μM Paclitaxel, and 100 μM Nocodazole. Add 10 μL G-PEM, 3AA-MDC, 206-3AA-MDC, cys-3AA-MDC, lys-mcc-MDC, Paclitaxel, Nocodazole into the wells, and then add 100 μL 4 mg/ml tubulin to each well. Immediately place the plate into the spectrophotometer and start recording using the kinetic setup described above. […] Nocodazole, the tubulin polymerization inhibitor, was set as a negative control. […]

The test system of data set [1] is human acute lymphoblastic leukemia line C.E.M. The settings on record: cited from earlier work.
The conditions of data set [2]: versus methotrexate, daunorubicin, and vincristine; cited from earlier work.

Consider `COc1cc2cc(c1Cl)N(C)C(=O)C[C@H](OC(=O)[C@H](C)N(C)C(=O)CCCCCN1C(=O)C=CC1=O)[C@]1(C)OC1[C@H](C)[C@@H]1C[C@@](O)(NC(=O)O1)[C@H](OC)/C=C/C=C(\C)C2` (stereo partly shown) [3AA-MDC, N2′-deacetyl-N2′-(6-maleimido-1-oxo-hexyl)-maytansine], for which, in the data set on tubulin, the “inhibition of tubulin polymerization” value is “more significantly inhibited the tubulin polymerization”.

As to `COc1cc2cc(c1Cl)N(C)C(=O)C[C@H](OC(=O)[C@H](C)N(C)C(C)=O)[C@]1(C)O[C@H]1[C@H](C)[C@@H]1C[C@@](O)(NC(=O)O1)[C@H](OC)/C=C/C=C(\C)C2` [Maytansine], the “inhibitory concentration (as low as)” value in data set [1] was 10^−7 mg/mL. Also, in data set [2], the “fold more cytotoxic than conventional chemotherapeutic agents” value is recorded as 100- to 1000 fold.

Take `COc1cc2cc(c1Cl)N(C)C(=O)C[C@H](OC(=O)[C@H](C)N(C)C(=O)CCSC1CC(=O)N(CC3CCC(C(=O)NCCCC[C@H](N)C(=O)O)CC3)C1=O)[C@]1(C)O[C@H]1[C@H](C)[C@@H]1C[C@@](O)(NC(=O)O1)[C@H](OC)/C=C/C=C(\C)C2` (stereo partly shown) [Lys-mcc-MDC]: the “inhibition of tubulin polymerization” value in the data set with tubulin is on record as “more significantly inhibited the tubulin polymerization”.
